Holding throughout (format): cell-based
In one test the target is T1, JAK3 (Homo sapiens, UniProt P52333).
T1 construct: endogenous in cells; host or cells: MHH-CALL-4
T1 sequence (P52333 1-1124): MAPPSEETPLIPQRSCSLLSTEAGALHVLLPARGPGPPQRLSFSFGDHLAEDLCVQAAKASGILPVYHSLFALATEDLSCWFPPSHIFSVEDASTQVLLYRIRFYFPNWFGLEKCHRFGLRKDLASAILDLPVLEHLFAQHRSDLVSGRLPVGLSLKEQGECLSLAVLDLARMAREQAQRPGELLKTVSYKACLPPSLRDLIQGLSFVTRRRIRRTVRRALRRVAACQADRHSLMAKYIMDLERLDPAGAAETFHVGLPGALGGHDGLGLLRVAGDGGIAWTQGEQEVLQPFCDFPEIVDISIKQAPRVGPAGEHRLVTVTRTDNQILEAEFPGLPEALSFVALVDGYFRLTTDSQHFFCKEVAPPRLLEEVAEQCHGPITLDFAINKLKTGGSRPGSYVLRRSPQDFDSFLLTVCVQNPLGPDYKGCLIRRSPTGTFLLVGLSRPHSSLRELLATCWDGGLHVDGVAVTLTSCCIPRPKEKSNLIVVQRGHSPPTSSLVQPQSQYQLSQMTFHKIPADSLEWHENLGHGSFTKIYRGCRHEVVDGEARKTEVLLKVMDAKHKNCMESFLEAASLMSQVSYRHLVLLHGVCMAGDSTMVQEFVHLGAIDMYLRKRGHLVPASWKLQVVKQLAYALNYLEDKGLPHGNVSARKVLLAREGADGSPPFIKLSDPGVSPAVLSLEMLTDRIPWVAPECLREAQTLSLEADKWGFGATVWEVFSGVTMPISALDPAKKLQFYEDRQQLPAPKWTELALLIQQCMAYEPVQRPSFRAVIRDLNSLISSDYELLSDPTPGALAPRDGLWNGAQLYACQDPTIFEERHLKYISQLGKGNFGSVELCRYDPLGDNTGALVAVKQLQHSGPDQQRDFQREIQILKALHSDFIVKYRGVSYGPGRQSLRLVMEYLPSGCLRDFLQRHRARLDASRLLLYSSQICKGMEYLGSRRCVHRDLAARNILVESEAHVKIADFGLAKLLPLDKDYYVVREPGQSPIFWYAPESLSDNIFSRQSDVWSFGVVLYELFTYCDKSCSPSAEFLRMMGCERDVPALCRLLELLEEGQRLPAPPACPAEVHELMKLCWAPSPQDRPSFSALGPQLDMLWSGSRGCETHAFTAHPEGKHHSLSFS
Kind of test: Western blot assay, JAK3 protein degradation. Particulars: MHHCALL4; 100 nM, 24 h; MHH-CALL-4 cells; vehicle control = 100%; read-out: Target Protein Degradation (% remaining at 100 nM, 24 h) JAK3. Here is the method: (§1) Western blot assay: MHH-CALL-4 Cells were washed twice with ice-cold PBS and lysed in RIPA lysis buffer (Sigma) freshly supplemented with Halt™ Protease Inhibitor Cocktail (ThermoFisher) for 15 minutes on ice. The cell pellet was removed by centrifugation at 13,000 g at 4° C. for 15 minutes. Protein concentration was measured by BCA assay (Thermo Fisher Scientific). Proteins were denatured in NuPAGE LDS 4× sample buffer supplemented with reducing agents (Invitrogen). Typically, 10-20 μg of total protein was loaded per lane on a 4%-12% NUPAGE Bis-Tris gradient gel (Invitrogen) and analyzed by standard immunoblotting and imaged using Li—COR Odyssey CLx (LI-COR Biotechnology, Lincoln, NE). To access the protein degradation, the signal of target protein was normalized by the signal of ACBT and the signal of vehicle control was set as 100%. Primary antibodies used were: JAK1 (Cell Signaling #3332S), JAK2 (#3230S), JAK3 (#8827S), TYK2 (#9312S), GSPT1 (#14980S), CRBN (#71810S), IKZF1 (Santa Cruz Biotechnology, SC-398265) and ACBT (Santa Cruz Biotechnology, SC-47778).
Background: Immunoblotting shows a protein as a band on a membrane.

In the next test the test system is JAK2. Kind of test: Western blot assay, JAK2 protein degradation. Particulars: MHH-CALL-4 cells, vehicle control = 100%. Here is the method: as §1
In the next test the test system is MHH-CALL-4 cells. The experiment in a line: Cytotoxicity assay (resazurin, 72 hours). Also noted: AUC: unit not given beside the values. Particulars: for EC50: MHHCALL4, resazurin; for AUC: area under the dose-response curve. As for the experimental part:
Cytotoxicity assay: MHH-CALL-4 cells were maintained in RPMI1640 medium (Invitrogen) supplemented with 10% FBS (Hyclone), Penicillin/Streptomycin (100 units/mL) and Glutamine (100 μM). 2×10^5 cells were seeded in 100 μl medium/well in 96 well assay plates (Corning 3603). Assays were performed in triplicate; compounds to be screened were added to assay plates from DMSO stock solutions by pin transfer using 50SS pins (V&P Scientific). The assay plates incubated at 37° C. in 5% CO2 for 72 hours. Cells were then incubated for four hours with resazurin (Sigma) solution and read on a Synergy HT plate reader (Biotek, Winooski, VT). High-throughput assay data was analyzed using our in-house Robust Interpretation of Screening Experiments (RISE) application written in Pipeline Pilot (Biovia, v. 17.2.0) and the R program (R Core Team, 2013). All the AUC (area under the dose-response curve) per compound calculated from its dose response curve by RISE protocol. Selected data were plotted and analyzed by GraphPad Prism software v7 using non-linear regression curve fitting.
On the technique in general: Resazurin is reduced to fluorescent resorufin, in cell work by metabolically active cells.

A further test concerns the target T2, GSPT1 (Homo sapiens, UniProt P15170).
T2 construct: endogenous in cells; host or cells: MHH-CALL-4
The experiment in a line: Western blot assay, GSPT1 neosubstrate degradation. Particulars: MHHCALL4; 100 nM, 24 h; MHH-CALL-4 cells; vehicle control = 100%. As for the experimental part:
as §1

In another test the target is T3, JAK1 (Homo sapiens, UniProt P23458).
T3 construct: endogenous in cells; host or cells: MHH-CALL-4
T3 sequence (P23458 whole entry): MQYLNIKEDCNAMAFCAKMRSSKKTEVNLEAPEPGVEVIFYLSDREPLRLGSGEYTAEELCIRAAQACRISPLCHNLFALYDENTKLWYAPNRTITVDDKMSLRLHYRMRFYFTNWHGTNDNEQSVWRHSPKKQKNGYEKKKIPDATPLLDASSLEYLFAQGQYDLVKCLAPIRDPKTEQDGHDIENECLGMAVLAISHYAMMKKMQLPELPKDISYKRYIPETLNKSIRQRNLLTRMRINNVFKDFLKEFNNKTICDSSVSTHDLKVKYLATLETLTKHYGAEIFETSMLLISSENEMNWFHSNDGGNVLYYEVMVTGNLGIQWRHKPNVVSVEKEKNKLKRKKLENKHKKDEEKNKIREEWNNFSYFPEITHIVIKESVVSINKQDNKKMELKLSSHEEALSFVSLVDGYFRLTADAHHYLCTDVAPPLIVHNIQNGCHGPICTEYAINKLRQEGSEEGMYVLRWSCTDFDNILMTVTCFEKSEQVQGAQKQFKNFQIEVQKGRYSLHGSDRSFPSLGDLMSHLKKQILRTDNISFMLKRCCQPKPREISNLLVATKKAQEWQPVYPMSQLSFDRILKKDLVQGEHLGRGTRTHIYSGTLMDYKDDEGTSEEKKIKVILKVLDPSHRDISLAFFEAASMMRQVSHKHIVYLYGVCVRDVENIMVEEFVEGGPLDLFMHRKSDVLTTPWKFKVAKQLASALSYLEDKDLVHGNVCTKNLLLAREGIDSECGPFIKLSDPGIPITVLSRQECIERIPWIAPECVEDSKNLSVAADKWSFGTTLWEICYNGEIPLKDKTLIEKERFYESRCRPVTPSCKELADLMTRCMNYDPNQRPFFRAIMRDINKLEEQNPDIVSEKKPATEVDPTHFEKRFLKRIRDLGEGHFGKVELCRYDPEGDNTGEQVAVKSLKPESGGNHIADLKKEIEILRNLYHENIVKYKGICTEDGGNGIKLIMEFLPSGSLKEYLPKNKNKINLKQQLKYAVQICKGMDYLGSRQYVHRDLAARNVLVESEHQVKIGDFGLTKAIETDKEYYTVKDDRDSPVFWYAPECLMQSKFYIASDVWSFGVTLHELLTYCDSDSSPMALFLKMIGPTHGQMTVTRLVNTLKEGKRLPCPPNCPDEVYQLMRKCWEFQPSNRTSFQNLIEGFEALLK
The experiment in a line: Western blot assay, JAK1 protein degradation. Particulars: MHH-CALL-4 cells, vehicle control = 100%. Here is the method:
as §1

T2 sequence (P15170 whole entry): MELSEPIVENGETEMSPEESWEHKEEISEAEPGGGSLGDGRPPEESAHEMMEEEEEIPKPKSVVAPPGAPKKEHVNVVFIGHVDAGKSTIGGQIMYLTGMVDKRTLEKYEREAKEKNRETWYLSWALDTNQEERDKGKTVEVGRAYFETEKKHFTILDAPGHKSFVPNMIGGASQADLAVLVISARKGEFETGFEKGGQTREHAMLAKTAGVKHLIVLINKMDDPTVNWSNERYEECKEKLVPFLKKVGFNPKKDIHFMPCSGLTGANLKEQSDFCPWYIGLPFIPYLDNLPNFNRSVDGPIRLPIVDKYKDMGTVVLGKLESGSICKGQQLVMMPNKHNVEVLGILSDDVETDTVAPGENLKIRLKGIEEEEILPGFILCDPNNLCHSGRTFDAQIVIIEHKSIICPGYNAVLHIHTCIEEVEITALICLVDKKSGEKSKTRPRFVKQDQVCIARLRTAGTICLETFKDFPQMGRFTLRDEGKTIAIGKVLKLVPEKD

What is called EC50 is the concentration that produces a half-maximal response. With `CCS(=O)(=O)N1CC(CC#N)(n2cc(-c3nc(Nc4ccc(C(=O)NCCCCN5CCN(c6ccc7c(c6)C(=O)N(C6CCC(=O)NC6=O)C7=O)CC5)cc4)nc4[nH]ccc34)cn2)C1` (stereo not drawn) [Compound 20], the remaining activity at 0.1 µM at JAK3 amounted to 102%; at GSPT1, 128%. The “Target Protein Degradation (% remaining at 100 nM, 24 h) JAK2” value in the test with JAK2 was determined as 40 % remaining. In the test on MHH-CALL-4 cells, the EC50 was found to be 13.6 nM. For the same compound, in the test with MHH-CALL-4 cells, the AUC worked out at 123. The “Target Protein Degradation (% remaining at 100 nM, 24 h) JAK1” value on JAK1 is 138 % remaining.
`CCS(=O)(=O)N1CC(CC#N)(n2cc(-c3nc(Nc4ccc(C(=O)N5CCC6(CCN(c7ccc(C8CCC(=O)NC8=O)cc7)CC6)C5)cc4)nc4[nH]ccc34)cn2)C1` (stereo not drawn) [Compound 52, 2-(3-(4-(2-((4-(8-(4-(2,6-dioxopiperidin-3-yl)phenyl)-2,8-diazaspiro[4.5]decane-2-carbonyl)phenyl)amino)-7H-pyrrolo[2,3-d]pyrimidin-4-yl)-1H-pyrazol-1-yl)-1-(ethylsulfonyl)azetidin-3-yl)acetonitrile]: the remaining activity at 0.1 µM at JAK3 is 27%. For the same compound, the “Target Protein Degradation (% remaining at 100 nM, 24 h) JAK2” value with JAK2 amounted to 16 % remaining. Also, in the test on MHH-CALL-4 cells, the EC50 was 9 nM and the AUC worked out at 180. In addition, the remaining activity at 0.1 µM on GSPT1 stood at 72%. Moreover, the “Target Protein Degradation (% remaining at 100 nM, 24 h) JAK1” value at JAK1 is given as 126 % remaining.
Turning to `N#CC[C@H](C1CCCC1)n1cc(-c2nc(Nc3ccc(C(=O)NCCCCOc4ccc(C5CCC(=O)NC5=O)cc4)cc3)nc3[nH]ccc23)cn1` (stereo partly drawn) [Compound 36], the remaining activity at 0.1 µM at JAK3 is 63%. For the same compound, the “Target Protein Degradation (% remaining at 100 nM, 24 h) JAK2” value in the test on JAK2 is 32 % remaining. In addition, in the test on MHH-CALL-4 cells, the EC50 is 5.4 nM and the AUC worked out at 129. Besides, the remaining activity at 0.1 µM on GSPT1 was 94%. The “Target Protein Degradation (% remaining at 100 nM, 24 h) JAK1” value at JAK1 worked out at 118 % remaining.
For `N#CC[C@H](C1CCCC1)n1cc(-c2nc(Nc3ccc(C(=O)NCCN4CCN(c5ccc6c(c5)C(=O)N(C5CCC(=O)NC5=O)C6=O)CC4)cc3)nc3[nH]ccc23)cn1` (stereo partly drawn) [Compound 22], the remaining activity at 0.1 µM at JAK3 turned out to be 61%. The “Target Protein Degradation (% remaining at 100 nM, 24 h) JAK2” value in the test on JAK2 came out at 36 % remaining. In addition, in the test with MHH-CALL-4 cells, the EC50 is 18.1 nM and the AUC was 141. Moreover, the remaining activity at 0.1 µM on GSPT1 came to 103%. Further, the “Target Protein Degradation (% remaining at 100 nM, 24 h) JAK1” value on JAK1 was found to be 72 % remaining.
Take `CCCn1cc(-c2nc(Nc3ccc(C(=O)NCCCN4CCN(c5ccc(C6CCC(=O)NC6=O)cc5)CC4)cc3)nc3[nH]ccc23)cn1` (stereo not drawn) [Compound 44, N-(3-(4-(4-(2,6-dioxopiperidin-3-yl)phenyl)piperazin-1-yl)propyl)-4-((4-(1-propyl-JH-pyrazol-4-yl)-7H-pyrrolo[2,3-d]pyrimidin-2-yl)amino)benzamide]: the remaining activity at 0.1 µM on JAK3 was found to be 74%; on GSPT1, 81%. Further, in the test with JAK2, the “Target Protein Degradation (% remaining at 100 nM, 24 h) JAK2” value is on record as 64 % remaining. Further, the “Target Protein Degradation (% remaining at 100 nM, 24 h) JAK1” value at JAK1 worked out at 104 % remaining.
For `CCS(=O)(=O)N1CC(CC#N)(n2cc(-c3nc(Nc4ccc(C(=O)NCC5CCN(c6ccc(C7CCC(=O)NC7=O)cc6)CC5)cc4)nc4[nH]ccc34)cn2)C1` (stereo not drawn) [Compound 45, 4-((4-(1-(3-(cyanomethyl)-1-(ethylsulfonyl)azetidin-3-yl)-1H-pyrazol-4-yl)-7H-pyrrolo[2,3-d]pyrimidin-2-yl)amino)-N-((1-(4-(2,6-dioxopiperidin-3-yl)phenyl)piperidin-4-yl)methyl)benzamide] the same measures were 29%, 101%, 21 % remaining and 107 % remaining.
Regarding `CCS(=O)(=O)N1CC(CC#N)(n2cc(-c3nc(Nc4ccc(C(=O)NCCN5CCC(c6ccc7c(c6)CN(C6CCC(=O)NC6=O)C7=O)CC5)cc4)nc4[nH]ccc34)cn2)C1` (stereo not drawn) [Compound 35, 4-((4-(1-(3-(cyanomethyl)-1-(ethylsulfonyl)azetidin-3-yl)-1H-pyrazol-4-yl)-7H-pyrrolo[2,3-d]pyrimidin-2-yl)amino)-N-(2-(4-(2-(2,6-dioxopiperidin-3-yl)-1-oxoisoindolin-5-yl)piperidin-1-yl)ethyl)benzamide], the remaining activity at 0.1 µM at JAK3 was determined as 51%. For the same compound, the “Target Protein Degradation (% remaining at 100 nM, 24 h) JAK2” value in the test on JAK2 was 33 % remaining. In the test on MHH-CALL-4 cells, the EC50 came out at 22 nM and the AUC was determined as 223. Also, the remaining activity at 0.1 µM on GSPT1 is 116%.
On the same counts, the results for `N#CC[C@H](C1CCCC1)n1cc(-c2nc(Nc3ccc(C(=O)NCCCN4CCN(c5ccc(C6CCC(=O)NC6=O)cc5)CC4)cc3)nc3[nH]ccc23)cn1` (stereo partly drawn) [Compound 38, 4-((4-(1-((R)-2-cyano-1-cyclopentylethyl)-1H-pyrazol-4-yl)-7H-pyrrolo[2,3-d]pyrimidin-2-yl)amino)-N-(3-(4-(4-(2,6-dioxopiperidin-3-yl)phenyl)piperazin-1-yl)propyl)benzamide] are 41%, 48 % remaining, 2.6 nM, 122 and 99%.
In the case of `CCS(=O)(=O)N1CC(CC#N)(n2cc(-c3nc(Nc4ccc(C(=O)NCCCCCNc5cccc(C6CCC(=O)NC6=O)c5)cc4)nc4[nH]ccc34)cn2)C1` (stereo not drawn) [Compound 6], the remaining activity at 0.1 µM at JAK3 is 54%. For the same compound, in the test with JAK2, the “Target Protein Degradation (% remaining at 100 nM, 24 h) JAK2” value worked out at 37 % remaining. In the test on MHH-CALL-4 cells, the EC50 was determined as 5.9 nM and the AUC turned out to be 136. For the same compound, the “Target Protein Degradation (% remaining at 100 nM, 24 h) JAK1” value on JAK1 is on record as 44 % remaining.
On to `CCCn1cc(-c2nc(Nc3ccc(C(=O)NCCCCOc4ccc(C5CCC(=O)NC5=O)cc4)cc3)nc3[nH]ccc23)cn1` (stereo not drawn) [Compound 43, N-(4-(4-(2,6-dioxopiperidin-3-yl)phenoxy)butyl)-4-((4-(1-propyl-1H-pyrazol-4-yl)-7H-pyrrolo[2,3-d]pyrimidin-2-yl)amino)benzamide], for which the remaining activity at 0.1 µM on JAK3 was determined as 79%; at GSPT1 it was 37%. The “Target Protein Degradation (% remaining at 100 nM, 24 h) JAK2” value in the test on JAK2 was determined as 76 % remaining. Also, the “Target Protein Degradation (% remaining at 100 nM, 24 h) JAK1” value on JAK1 is given as 123 % remaining.

For the origin of these results see patent US20240124465A1, “MOLECULES AND METHODS RELATED TO TREATMENT OF DISORDERS ASSOCIATED WITH JAK-2 SIGNALING DYSFUNCTION” (ST. JUDE CHILDREN'S RESEARCH HOSPITAL, priority 2020, published 2024).
